Data published in paper PMC6199744, “Development of Chemical Proteomics for the Folateome and Analysis of the Kinetoplastid Folateome” (ACS Infectious Diseases, 2018).
Read-outs that look alike come from different tables or passages of the source.

Key:
Type in all cases: binding
[1] = target: T1, HeLa cell extract proteins (Homo sapiens, UniProt Q15437)
T1 construct: endogenous in cells; host or cells: HeLa cell extract

[2] = target: T2, HeLa cell extract proteins (Homo sapiens, UniProt O75306)
T2 construct: endogenous in cells; host or cells: HeLa cell extract

[3] = target: T3, HeLa cell extract proteins (Homo sapiens, UniProt O95218)
T3 construct: endogenous in cells; host or cells: HeLa cell extract
T3 sequence (O95218 1-330): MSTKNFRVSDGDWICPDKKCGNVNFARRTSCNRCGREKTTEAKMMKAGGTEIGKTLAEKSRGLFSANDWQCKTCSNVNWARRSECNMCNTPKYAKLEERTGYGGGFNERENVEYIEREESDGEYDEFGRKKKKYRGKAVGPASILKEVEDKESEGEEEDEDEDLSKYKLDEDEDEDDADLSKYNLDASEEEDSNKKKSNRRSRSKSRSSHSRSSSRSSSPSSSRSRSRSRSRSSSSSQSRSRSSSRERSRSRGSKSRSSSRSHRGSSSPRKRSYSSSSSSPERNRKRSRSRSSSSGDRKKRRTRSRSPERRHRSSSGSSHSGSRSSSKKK

[4] = target: T4, HeLa cell extract proteins (Homo sapiens, UniProt O00408)
T4 construct: endogenous in cells; host or cells: HeLa cell extract

[5] = target: T5, HeLa cell extract proteins (Homo sapiens, UniProt P30050)
T5 construct: endogenous in cells; host or cells: HeLa cell extract

[6] = target: T6, HeLa cell extract proteins (Homo sapiens, UniProt Q09161)
T6 construct: endogenous in cells; host or cells: HeLa cell extract
T6 sequence (Q09161 1-790): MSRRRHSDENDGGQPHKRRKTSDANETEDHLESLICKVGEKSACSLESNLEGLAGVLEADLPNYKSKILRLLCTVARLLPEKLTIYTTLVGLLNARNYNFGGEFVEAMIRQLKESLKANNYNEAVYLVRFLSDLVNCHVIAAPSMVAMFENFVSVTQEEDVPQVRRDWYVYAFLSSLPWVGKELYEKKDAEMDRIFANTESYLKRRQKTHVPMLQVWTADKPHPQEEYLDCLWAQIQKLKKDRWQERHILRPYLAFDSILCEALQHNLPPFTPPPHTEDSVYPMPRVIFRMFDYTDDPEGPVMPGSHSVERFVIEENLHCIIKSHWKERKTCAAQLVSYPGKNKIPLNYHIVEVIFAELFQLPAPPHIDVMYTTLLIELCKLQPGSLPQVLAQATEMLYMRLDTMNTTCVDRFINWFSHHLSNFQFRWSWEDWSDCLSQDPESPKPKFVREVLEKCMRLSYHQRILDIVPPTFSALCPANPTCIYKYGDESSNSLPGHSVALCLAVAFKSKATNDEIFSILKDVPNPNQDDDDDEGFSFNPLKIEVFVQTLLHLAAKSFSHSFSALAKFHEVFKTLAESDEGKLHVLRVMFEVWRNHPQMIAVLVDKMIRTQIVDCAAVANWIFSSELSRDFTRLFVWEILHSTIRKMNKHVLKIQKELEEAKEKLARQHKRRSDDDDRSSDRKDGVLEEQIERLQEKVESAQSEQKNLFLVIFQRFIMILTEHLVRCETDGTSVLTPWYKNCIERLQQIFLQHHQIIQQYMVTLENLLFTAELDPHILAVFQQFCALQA

[7] = target: T7, HeLa cell extract proteins (Homo sapiens, UniProt Q9Y6D5)
T7 construct: endogenous in cells; host or cells: HeLa cell extract

[8] = target: T8, HeLa cell extract proteins (Homo sapiens, UniProt P36639)
T8 construct: endogenous in cells; host or cells: HeLa cell extract

[9] = target: T9, HeLa cell extract proteins (Homo sapiens, UniProt Q99460)
T9 construct: endogenous in cells; host or cells: HeLa cell extract

[10] = target: T10, HeLa cell extract proteins (Homo sapiens, UniProt Q8NEZ5)
T10 construct: endogenous in cells; host or cells: HeLa cell extract
T10 sequence (Q8NEZ5 1-403): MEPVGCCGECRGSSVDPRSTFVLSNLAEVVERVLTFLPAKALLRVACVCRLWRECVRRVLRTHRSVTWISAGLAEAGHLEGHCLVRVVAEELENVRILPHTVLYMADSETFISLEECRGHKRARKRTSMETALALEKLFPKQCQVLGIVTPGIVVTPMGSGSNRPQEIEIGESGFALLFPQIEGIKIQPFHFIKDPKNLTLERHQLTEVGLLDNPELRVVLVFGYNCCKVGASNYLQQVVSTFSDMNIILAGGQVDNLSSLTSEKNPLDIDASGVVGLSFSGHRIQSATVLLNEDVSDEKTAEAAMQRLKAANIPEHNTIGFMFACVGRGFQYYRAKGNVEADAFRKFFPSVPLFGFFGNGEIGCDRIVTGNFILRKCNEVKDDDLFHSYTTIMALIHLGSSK

[11] = target: T11, HeLa cell extract proteins (Homo sapiens, UniProt Q969M3)
T11 construct: endogenous in cells; host or cells: HeLa cell extract
T11 sequence (Q969M3 whole entry): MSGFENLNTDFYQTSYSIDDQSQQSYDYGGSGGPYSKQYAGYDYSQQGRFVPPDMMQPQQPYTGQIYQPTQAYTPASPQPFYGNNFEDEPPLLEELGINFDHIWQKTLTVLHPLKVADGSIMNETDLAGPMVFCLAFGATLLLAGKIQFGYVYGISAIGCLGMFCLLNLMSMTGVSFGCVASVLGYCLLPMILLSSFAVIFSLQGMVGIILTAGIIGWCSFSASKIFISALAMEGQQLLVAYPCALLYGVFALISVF

T2 sequence (O75306 34-463): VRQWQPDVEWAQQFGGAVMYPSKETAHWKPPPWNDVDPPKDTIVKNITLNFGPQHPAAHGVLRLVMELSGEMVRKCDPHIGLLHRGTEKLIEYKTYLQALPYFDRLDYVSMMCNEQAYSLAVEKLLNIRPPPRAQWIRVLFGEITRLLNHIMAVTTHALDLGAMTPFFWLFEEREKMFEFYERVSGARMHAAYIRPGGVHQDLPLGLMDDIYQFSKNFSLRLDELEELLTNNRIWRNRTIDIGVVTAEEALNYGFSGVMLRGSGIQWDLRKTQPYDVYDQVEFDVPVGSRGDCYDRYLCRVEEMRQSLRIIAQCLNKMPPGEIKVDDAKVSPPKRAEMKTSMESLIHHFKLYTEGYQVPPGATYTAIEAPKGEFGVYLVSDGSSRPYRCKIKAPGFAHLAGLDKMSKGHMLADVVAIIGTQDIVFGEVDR
T7 sequence (Q9Y6D5 whole entry): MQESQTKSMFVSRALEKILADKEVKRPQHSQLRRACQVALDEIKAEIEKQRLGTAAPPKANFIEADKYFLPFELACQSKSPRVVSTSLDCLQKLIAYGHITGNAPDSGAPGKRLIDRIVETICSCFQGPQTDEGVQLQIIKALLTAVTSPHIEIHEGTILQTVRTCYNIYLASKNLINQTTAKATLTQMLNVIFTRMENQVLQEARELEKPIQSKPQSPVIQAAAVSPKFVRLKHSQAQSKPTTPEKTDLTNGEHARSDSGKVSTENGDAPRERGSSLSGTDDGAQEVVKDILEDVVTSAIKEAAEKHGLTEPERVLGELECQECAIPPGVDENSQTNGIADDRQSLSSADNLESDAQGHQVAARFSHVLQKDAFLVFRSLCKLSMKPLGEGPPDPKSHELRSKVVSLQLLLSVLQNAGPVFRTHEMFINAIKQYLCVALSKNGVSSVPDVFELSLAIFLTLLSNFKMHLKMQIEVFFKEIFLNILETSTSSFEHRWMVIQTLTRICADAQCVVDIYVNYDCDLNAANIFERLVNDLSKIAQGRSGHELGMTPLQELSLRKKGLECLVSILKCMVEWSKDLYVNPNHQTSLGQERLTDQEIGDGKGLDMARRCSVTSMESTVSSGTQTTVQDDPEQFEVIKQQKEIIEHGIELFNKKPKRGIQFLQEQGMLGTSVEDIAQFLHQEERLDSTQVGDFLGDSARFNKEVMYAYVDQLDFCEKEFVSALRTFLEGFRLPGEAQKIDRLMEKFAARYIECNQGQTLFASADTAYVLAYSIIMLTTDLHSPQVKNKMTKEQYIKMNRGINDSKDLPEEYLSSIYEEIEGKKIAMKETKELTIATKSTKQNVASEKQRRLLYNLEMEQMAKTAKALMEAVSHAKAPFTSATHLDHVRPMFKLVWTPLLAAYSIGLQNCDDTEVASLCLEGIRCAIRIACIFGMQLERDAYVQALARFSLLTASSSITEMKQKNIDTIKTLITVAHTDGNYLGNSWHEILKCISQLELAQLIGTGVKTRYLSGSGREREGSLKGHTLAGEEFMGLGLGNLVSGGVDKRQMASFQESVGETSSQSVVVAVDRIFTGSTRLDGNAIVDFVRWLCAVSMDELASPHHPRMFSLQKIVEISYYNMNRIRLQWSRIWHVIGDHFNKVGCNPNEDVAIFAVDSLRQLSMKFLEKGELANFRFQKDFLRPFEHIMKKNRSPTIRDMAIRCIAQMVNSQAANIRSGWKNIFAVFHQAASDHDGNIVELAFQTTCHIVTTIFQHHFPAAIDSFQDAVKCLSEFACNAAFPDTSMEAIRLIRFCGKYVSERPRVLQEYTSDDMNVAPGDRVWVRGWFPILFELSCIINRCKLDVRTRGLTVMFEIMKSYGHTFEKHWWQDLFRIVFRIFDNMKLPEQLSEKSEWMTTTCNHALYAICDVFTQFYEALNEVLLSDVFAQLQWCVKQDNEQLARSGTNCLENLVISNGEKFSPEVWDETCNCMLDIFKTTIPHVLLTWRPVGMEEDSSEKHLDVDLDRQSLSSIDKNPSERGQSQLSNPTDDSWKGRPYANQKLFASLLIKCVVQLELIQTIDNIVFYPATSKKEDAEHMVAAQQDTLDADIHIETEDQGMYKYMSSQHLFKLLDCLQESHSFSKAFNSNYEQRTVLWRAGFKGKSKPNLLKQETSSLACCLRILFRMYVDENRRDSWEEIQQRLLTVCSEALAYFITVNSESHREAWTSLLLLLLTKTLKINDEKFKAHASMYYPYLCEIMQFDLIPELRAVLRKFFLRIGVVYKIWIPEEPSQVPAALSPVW
T1 sequence (Q15437 whole entry): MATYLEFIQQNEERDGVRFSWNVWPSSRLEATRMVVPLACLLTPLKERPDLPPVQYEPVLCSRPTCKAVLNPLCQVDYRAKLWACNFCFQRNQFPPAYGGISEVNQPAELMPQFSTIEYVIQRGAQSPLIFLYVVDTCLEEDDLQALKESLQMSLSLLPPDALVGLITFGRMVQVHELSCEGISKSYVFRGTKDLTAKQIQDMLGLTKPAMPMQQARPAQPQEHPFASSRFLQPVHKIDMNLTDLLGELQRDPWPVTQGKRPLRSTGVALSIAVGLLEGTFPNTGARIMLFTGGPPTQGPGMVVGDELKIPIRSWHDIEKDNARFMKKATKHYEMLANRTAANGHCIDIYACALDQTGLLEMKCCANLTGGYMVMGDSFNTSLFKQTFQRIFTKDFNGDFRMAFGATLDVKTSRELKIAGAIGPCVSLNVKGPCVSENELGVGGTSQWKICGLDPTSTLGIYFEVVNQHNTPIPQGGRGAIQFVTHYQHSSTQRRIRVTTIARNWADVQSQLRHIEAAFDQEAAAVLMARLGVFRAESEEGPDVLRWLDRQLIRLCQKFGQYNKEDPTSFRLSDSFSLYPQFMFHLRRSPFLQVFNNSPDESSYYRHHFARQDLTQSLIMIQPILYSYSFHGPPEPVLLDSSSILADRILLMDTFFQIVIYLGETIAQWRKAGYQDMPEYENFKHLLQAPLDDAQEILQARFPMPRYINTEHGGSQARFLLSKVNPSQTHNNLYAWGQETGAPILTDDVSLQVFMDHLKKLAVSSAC
T9 sequence (Q99460 whole entry): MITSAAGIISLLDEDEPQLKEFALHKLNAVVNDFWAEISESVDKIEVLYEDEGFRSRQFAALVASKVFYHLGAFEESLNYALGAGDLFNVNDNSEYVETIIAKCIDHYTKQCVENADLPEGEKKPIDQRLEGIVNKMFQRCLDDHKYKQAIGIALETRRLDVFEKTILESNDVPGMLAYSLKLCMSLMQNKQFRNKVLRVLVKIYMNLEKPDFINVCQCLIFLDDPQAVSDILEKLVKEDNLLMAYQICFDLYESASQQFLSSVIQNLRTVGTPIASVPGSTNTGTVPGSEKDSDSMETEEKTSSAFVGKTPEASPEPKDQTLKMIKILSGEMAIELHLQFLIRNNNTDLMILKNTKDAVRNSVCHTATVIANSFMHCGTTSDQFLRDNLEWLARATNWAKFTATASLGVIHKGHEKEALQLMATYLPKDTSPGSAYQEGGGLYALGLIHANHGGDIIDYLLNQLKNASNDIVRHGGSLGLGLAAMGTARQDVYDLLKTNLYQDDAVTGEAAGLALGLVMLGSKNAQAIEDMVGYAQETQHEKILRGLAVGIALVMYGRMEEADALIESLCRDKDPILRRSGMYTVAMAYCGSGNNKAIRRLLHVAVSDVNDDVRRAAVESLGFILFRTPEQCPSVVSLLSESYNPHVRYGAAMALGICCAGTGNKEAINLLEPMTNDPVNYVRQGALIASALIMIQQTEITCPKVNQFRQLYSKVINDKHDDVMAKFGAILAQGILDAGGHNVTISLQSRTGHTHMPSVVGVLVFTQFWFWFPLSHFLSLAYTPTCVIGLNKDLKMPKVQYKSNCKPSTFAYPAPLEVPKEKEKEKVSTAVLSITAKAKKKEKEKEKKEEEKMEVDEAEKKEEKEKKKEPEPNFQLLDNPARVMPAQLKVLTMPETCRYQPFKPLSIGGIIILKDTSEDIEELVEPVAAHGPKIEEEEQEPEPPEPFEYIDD

Structure (SMILES): Nc1nc2cccc(-c3ccccc3)c2n1Cc1ccc(Cl)c(Cl)c1 [compound 3]
- fold changes relative to vehicle control ([1]; HeLa, protein SEC23B): 1.04
- fold changes relative to vehicle control ([2]; HeLa, protein NDUFS2): 1.3
- fold changes relative to vehicle control ([3]; HeLa, protein ZRANB2): 0.98
- fold changes relative to vehicle control ([4]; protein PDE2A, HeLa): 0.64
- fold changes relative to vehicle control ([5]; protein RPL12, HeLa): 1.08
- fold changes relative to vehicle control ([6]; captured protein NCBP1, HeLa): 0.96
- fold changes relative to vehicle control ([7]; HeLa, protein ARFGEF2): 0.95
- fold changes relative to vehicle control ([8]; captured protein NUDT1, HeLa): 0.62
- fold changes relative to vehicle control ([9]; protein PSMD1, HeLa): 1.14
- fold changes relative to vehicle control ([10]; captured protein FBXO22, HeLa): 0.96
- fold changes relative to vehicle control ([11]; captured protein YIPF5, HeLa): 0.72

Structure (SMILES): Nc1nc2[nH]cc(CCc3ccc(C(=O)N[C@@H](CCC(=O)O)C(=O)O)cc3)c2c(=O)[nH]1 [PTX, pemetrexed]
- fold changes relative to vehicle control [1]: 0.91
- fold changes relative to vehicle control [2]: 0.92
- fold changes relative to vehicle control [3]: 0.87
- fold changes relative to vehicle control [4]: 0.71
- fold changes relative to vehicle control [5]: 1.13
- fold changes relative to vehicle control [6]: 0.95
- fold changes relative to vehicle control [7]: 1.01
- fold changes relative to vehicle control [8]: 0.36
- fold changes relative to vehicle control [9]: 0.99
- fold changes relative to vehicle control [10]: 1
- fold changes relative to vehicle control [11]: 0.98

Structure (SMILES): Nc1nc2c(c(=O)[nH]1)N(C=O)C(CNc1ccc(C(=O)N[C@@H](CCC(=O)O)C(=O)O)cc1)CN2 (some centres unmarked) [LEU, leucovorin]
- fold changes relative to vehicle control ([1]; HeLa, protein SEC23B): 0.98
- fold changes relative to vehicle control ([2]; protein NDUFS2, HeLa): 0.86
- fold changes relative to vehicle control ([3]; protein ZRANB2, HeLa): 0.82
- fold changes relative to vehicle control ([4]; protein PDE2A, HeLa): 0.73
- fold changes relative to vehicle control ([5]; HeLa, captured protein RPL12): 1.11
- fold changes relative to vehicle control ([6]; protein NCBP1, HeLa): 0.81
- fold changes relative to vehicle control ([7]; HeLa, protein ARFGEF2): 1.01
- fold changes relative to vehicle control ([8]; protein NUDT1, HeLa): 1.19
- fold changes relative to vehicle control ([9]; protein PSMD1, HeLa): 0.88
- fold changes relative to vehicle control ([10]; HeLa, protein FBXO22): 1
- fold changes relative to vehicle control ([11]; HeLa, captured protein YIPF5): 0.94

Structure (SMILES): CCCCCCOc1cccc(Cc2cnc(N)nc2N)c1 [compound 2]
- fold changes relative to vehicle control ([1]; HeLa, protein SEC23B): 0.93
- fold changes relative to vehicle control ([2]; HeLa, protein NDUFS2): 1.12
- fold changes relative to vehicle control ([3]; HeLa, protein ZRANB2): 1.23
- fold changes relative to vehicle control ([4]; protein PDE2A, HeLa): 1.7
- fold changes relative to vehicle control ([5]; protein RPL12, HeLa): 1.24
- fold changes relative to vehicle control ([6]; captured protein NCBP1, HeLa): 1.03
- fold changes relative to vehicle control ([7]; HeLa, protein ARFGEF2): 1.11
- fold changes relative to vehicle control ([8]; captured protein NUDT1, HeLa): 0.11
- fold changes relative to vehicle control ([9]; protein PSMD1, HeLa): 1.78
- fold changes relative to vehicle control ([10]; captured protein FBXO22, HeLa): 1.02
- fold changes relative to vehicle control ([11]; captured protein YIPF5, HeLa): 1.15

Structure (SMILES): NCCOCCOCC(=O)Nc1nc2ncc(CNc3ccc(C(=O)NC(CCC(=O)O)C(=O)O)cc3)nc2c(=O)[nH]1 (centres unmarked) [compound 6]
- fold changes relative to vehicle control ([1]; HeLa, protein SEC23B): 0.88
- fold changes relative to vehicle control ([2]; protein NDUFS2, HeLa): 1.12
- fold changes relative to vehicle control ([3]; protein ZRANB2, HeLa): 0.95
- fold changes relative to vehicle control ([4]; protein PDE2A, HeLa): 0.79
- fold changes relative to vehicle control ([5]; HeLa, captured protein RPL12): 1.12
- fold changes relative to vehicle control ([6]; protein NCBP1, HeLa): 0.89
- fold changes relative to vehicle control ([7]; HeLa, protein ARFGEF2): 1.15
- fold changes relative to vehicle control ([8]; protein NUDT1, HeLa): 1.16
- fold changes relative to vehicle control ([9]; protein PSMD1, HeLa): 1.08
- fold changes relative to vehicle control ([10]; HeLa, protein FBXO22): 0.82
- fold changes relative to vehicle control ([11]; HeLa, captured protein YIPF5): 0.93

Structure (SMILES): CCCCCCOc1ccc(Cc2cnc(N)nc2N)cc1 [compound 1]
- fold changes relative to vehicle control ([1]; HeLa, protein SEC23B): 1.01
- fold changes relative to vehicle control ([2]; HeLa, protein NDUFS2): 1.15
- fold changes relative to vehicle control ([3]; HeLa, protein ZRANB2): 1.04
- fold changes relative to vehicle control ([4]; protein PDE2A, HeLa): 0.61
- fold changes relative to vehicle control ([5]; protein RPL12, HeLa): 1.15
- fold changes relative to vehicle control ([6]; captured protein NCBP1, HeLa): 0.91
- fold changes relative to vehicle control ([7]; HeLa, protein ARFGEF2): 1.04
- fold changes relative to vehicle control ([8]; captured protein NUDT1, HeLa): 1.02
- fold changes relative to vehicle control ([9]; protein PSMD1, HeLa): 1.3
- fold changes relative to vehicle control ([10]; captured protein FBXO22, HeLa): 0.89
- fold changes relative to vehicle control ([11]; captured protein YIPF5, HeLa): 1.43

Structure (SMILES): NCCCNc1ccc(C(=O)NC(CCC(=O)O)C(=O)O)cc1 (centres unmarked) [compound 7]
- fold changes relative to vehicle control ([1]; HeLa, protein SEC23B): 1.09
- fold changes relative to vehicle control ([2]; protein NDUFS2, HeLa): 1.13
- fold changes relative to vehicle control ([3]; protein ZRANB2, HeLa): 0.77
- fold changes relative to vehicle control ([4]; protein PDE2A, HeLa): 0.7
- fold changes relative to vehicle control ([5]; HeLa, captured protein RPL12): 0.97
- fold changes relative to vehicle control ([6]; protein NCBP1, HeLa): 0.93
- fold changes relative to vehicle control ([7]; HeLa, protein ARFGEF2): 1.17
- fold changes relative to vehicle control ([8]; protein NUDT1, HeLa): 1.2
- fold changes relative to vehicle control ([9]; protein PSMD1, HeLa): 1.16
- fold changes relative to vehicle control ([10]; HeLa, protein FBXO22): 0.98
- fold changes relative to vehicle control ([11]; HeLa, captured protein YIPF5): 0.83
